Key:
saFabI [1] = biological target: T1, saFabI (Staphylococcus aureus, UniProt Q6GI75); assay: ThermoFluor thermal shift; assay type: binding; conditions: Tm of free enzyme 62.6
T1 sequence (Q6GI75 1-256): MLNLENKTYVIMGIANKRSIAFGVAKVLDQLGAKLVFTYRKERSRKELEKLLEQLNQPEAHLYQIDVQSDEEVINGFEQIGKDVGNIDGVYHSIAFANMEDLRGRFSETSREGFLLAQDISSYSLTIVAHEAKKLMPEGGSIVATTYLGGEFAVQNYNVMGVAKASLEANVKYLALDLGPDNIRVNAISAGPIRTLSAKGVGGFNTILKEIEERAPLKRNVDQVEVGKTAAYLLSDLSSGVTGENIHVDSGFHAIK

saFabI [2] = biological target: T1, saFabI; assay: X-ray crystal structure; assay type: binding; conditions: ternary complexes with PT12, PT400, PT404, PT449 or MUT37307
ecFabI = biological target: T2, ecFabI (Escherichia coli, UniProt P0AEK4); assay: X-ray crystal structure; assay type: binding
T2 sequence (P0AEK4 1-262): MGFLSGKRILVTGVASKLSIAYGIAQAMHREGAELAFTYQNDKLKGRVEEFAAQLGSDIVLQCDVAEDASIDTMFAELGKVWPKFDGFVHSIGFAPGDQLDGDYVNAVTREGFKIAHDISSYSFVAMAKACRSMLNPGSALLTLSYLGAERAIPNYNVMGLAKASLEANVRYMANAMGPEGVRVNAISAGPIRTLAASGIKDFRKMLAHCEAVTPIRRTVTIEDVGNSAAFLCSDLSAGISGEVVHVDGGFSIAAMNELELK

saFabI [3] = biological target: T1, saFabI; assay: single-concentration progress curve analysis; assay type: biochemical

SMILES: Cc1c(N)cccc1Cn1ccc(OCCc2cccs2)cc1=O [CG400549]
- Wild-type saFabI (saFabI [1]; ternary complex with NADPH): 71.2 °C

SMILES: NC(=O)c1ccc[n+]([C@@H]2O[C@H](COP(=O)(O)OP(=O)(O)OC[C@H]3O[C@@H](n4cnc5c(N)ncnc54)[C@H](OP(=O)(O)O)[C@@H]3O)[C@@H](O)[C@H]2O)c1 [NADP^+]
- X-ray crystal structure (saFabI [2]): saFabI in complex with NADP^+ and PT12, PT400, PT404, PT449, or MUT37307

SMILES: NC(=O)c1ccc[n+]([C@@H]2O[C@H](COP(=O)(O)OP(=O)(O)OC[C@H]3O[C@@H](n4cnc5c(N)ncnc54)[C@H](O)[C@@H]3O)[C@@H](O)[C@H]2O)c1 [NAD^+]
- X-ray crystal structure (ecFabI; ternary complex with PT449): ecFabI in complex with NAD^+ and PT449 have been deposited in the PDB

SMILES: CCCCCCc1ccc(Oc2ccc([N+](=O)[O-])cc2)c(O)c1 [PT12]
- Ki (saFabI [3]): 50 pM

SMILES: CCCCCCc1ccc(Oc2ccccc2C#N)c(O)c1 [PT119]
- Wild-type saFabI (saFabI [1]; ternary complex with NADP+): 70.4 °C

SMILES: CCc1cc(O)c(Oc2ccc([N+](=O)[O-])cc2Cl)cc1F [PT404]
- Ki (saFabI [3]): 750 pM

SMILES: N#Cc1cc(Br)ccc1Oc1ccc(Cl)cc1O [PT449]
- X-ray crystal structure (ecFabI; ternary complex with NAD+): ecFabI in complex with NAD^+ and PT449 have been deposited in the PDB
